Patent publication US10994015B2, “EGFR proteolysis targeting chimeric molecules and associated methods of use” (Arvinas Operations, Inc., priority 2016, dated 2021)
pIC50: −log10 of the molar value.

Tests used:
[1] = target: EGFR WT (Homo sapiens (Human), UniProt P00533); test: TR-FRET assay for ERBB kinases; format: biochemical; conditions: geometric mean if measured more than once
Summary of the method: (§1)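 Kinase pre-incubated 10 min with compound in pH 7.5 HEPES buffer with MgCl2 and DTT, then reacted 10 min at room temperature with fluorescein-poly-GluTyr and ATP (substrate mix at 3 mM ATP, 30 uM peptide). EDTA-quenched; Tb-pY20 antibody TR-FRET read at 520/490 nm.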

[2] = target: EGFR L858R/T790M (Homo sapiens (Human), UniProt P00533, L858R/T790M); test: TR-FRET assay for ERBB kinases; format: biochemical; conditions: geometric mean if measured more than once
Summary of the method: as §1

[3] = target: EGFR L858R/T790M/C797S (Homo sapiens (Human), UniProt P00533, C797S/L858R/T790M); test: TR-FRET assay for ERBB kinases; format: biochemical; conditions: geometric mean if measured more than once
Summary of the method: as §1

[4] = target: EGFR-wt (MDA-MB-231 or MCF7 or A549 or OVCAR8) (Homo sapiens (Human), UniProt P00533); test: EGFR protein degradation assay (Western blot); format: cell-based; conditions: 72 hours, 300 nM to 10 nM
Summary of the method: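 Cells carrying the relevant EGFR form were plated at 300,000 per well in 6-well plates and left overnight to attach. For harvest, cells were rinsed once in ice-cold PBS and lysed in 400 μl lysis buffer containing protease inhibitors. Lysates were cleared at 10 000 rpm for 10 minutes and their protein content measured by BCA. Then 10 μg per sample was separated by SDS/PAGE at 165V for 2 hours, and EGFR was detected by ECL on a Chemidoc.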

[5] = target: EGFR Exon 20 ASV (HeLa*) (Homo sapiens (Human), UniProt P00533, DUP767-769); test: EGFR protein degradation assay (Western blot); format: cell-based; conditions: 72 hours, 300 nM to 10 nM
[6] = target: EGFR L858R (Homo sapiens (Human), UniProt P00533, L858R); test: TR-FRET assay for ERBB kinases; format: biochemical; conditions: geometric mean if measured more than once
Summary of the method: (§2)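 Compounds pre-incubated 10 min with kinase in HEPES pH 7.5 buffer (MgCl2, DTT, Pluronic), then reaction started with substrate mix (3 mM ATP, 30 µM fluorescein-poly-GluTyr, stock levels) for 10 min at room temperature. EDTA-quenched, detected by Tb-pY20 antibody TR-FRET (520/490 nm emission).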

[7] = target: EGFR Exon20NPG (Homo sapiens (Human), UniProt P00533, INS770NPG); test: TR-FRET assay for ERBB kinases; format: biochemical; conditions: geometric mean if measured more than once
Summary of the method: as §2

[8] = target: HER2WT (Homo sapiens (Human), UniProt P04626); test: TR-FRET assay for ERBB kinases; format: biochemical; conditions: geometric mean if measured more than once
Summary of the method: as §2

[9] = target: EGFR Δ19/746/750 T790M (Homo sapiens (Human), UniProt P00533, DEL746-750/T790M); test: TR-FRET assay for ERBB kinases; format: biochemical; conditions: geometric mean if measured more than once
Summary of the method: as §2

[10] = target: EGFR Δ19/746/750 (Homo sapiens (Human), UniProt P00533, DEL746-750); test: TR-FRET assay for ERBB kinases; format: biochemical; conditions: geometric mean if measured more than once
Summary of the method: as §2

[11] = target: HER3 (Homo sapiens (Human), UniProt P21860); test: TR-FRET assay for ERBB kinases; format: biochemical; conditions: geometric mean if measured more than once
[12] = target: EGFR L858R/T790M double mutant (H1975) (Homo sapiens (Human), UniProt P00533, L858R/T790M); test: EGFR protein degradation assay (Western blot); format: cell-based; conditions: 72 hours, 300 nM to 10 nM
Summary of the method: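 Cells carrying the relevant EGFR form were plated at 300,000 cells per well in 6-well plates and left to attach overnight. After washing in ice-cold PBS, cells were lysed in 400 μl lysis buffer with protease inhibitors, scraped, and clarified at 10 000 rpm for 10 minutes. EGFR levels were then assessed by Western blot with tubulin as loading control.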

[13] = target: EGFR L858R/T790M/C797S triple mutant (H520*) (Homo sapiens (Human), UniProt P00533, C797S/L858R/T790M); test: EGFR protein degradation assay (Western blot); format: cell-based; conditions: 72 hours, 300 nM to 10 nM
Summary of the method: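 EGFR loss in the triple-mutant line measured by immunoblot: clarified lysates normalised by BCA, run on 4-12% Bis-Tris gels, blotted to PVDF, probed with HRP anti-rabbit secondary. Before lysis, cells were dosed from 1, 0.3, 0.1, 0.03 and 0.01 mM DMSO stocks (not final concentrations) after overnight culture at 37° C.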

Sequence of EGFR L858R (P00533 25-1210 L858R): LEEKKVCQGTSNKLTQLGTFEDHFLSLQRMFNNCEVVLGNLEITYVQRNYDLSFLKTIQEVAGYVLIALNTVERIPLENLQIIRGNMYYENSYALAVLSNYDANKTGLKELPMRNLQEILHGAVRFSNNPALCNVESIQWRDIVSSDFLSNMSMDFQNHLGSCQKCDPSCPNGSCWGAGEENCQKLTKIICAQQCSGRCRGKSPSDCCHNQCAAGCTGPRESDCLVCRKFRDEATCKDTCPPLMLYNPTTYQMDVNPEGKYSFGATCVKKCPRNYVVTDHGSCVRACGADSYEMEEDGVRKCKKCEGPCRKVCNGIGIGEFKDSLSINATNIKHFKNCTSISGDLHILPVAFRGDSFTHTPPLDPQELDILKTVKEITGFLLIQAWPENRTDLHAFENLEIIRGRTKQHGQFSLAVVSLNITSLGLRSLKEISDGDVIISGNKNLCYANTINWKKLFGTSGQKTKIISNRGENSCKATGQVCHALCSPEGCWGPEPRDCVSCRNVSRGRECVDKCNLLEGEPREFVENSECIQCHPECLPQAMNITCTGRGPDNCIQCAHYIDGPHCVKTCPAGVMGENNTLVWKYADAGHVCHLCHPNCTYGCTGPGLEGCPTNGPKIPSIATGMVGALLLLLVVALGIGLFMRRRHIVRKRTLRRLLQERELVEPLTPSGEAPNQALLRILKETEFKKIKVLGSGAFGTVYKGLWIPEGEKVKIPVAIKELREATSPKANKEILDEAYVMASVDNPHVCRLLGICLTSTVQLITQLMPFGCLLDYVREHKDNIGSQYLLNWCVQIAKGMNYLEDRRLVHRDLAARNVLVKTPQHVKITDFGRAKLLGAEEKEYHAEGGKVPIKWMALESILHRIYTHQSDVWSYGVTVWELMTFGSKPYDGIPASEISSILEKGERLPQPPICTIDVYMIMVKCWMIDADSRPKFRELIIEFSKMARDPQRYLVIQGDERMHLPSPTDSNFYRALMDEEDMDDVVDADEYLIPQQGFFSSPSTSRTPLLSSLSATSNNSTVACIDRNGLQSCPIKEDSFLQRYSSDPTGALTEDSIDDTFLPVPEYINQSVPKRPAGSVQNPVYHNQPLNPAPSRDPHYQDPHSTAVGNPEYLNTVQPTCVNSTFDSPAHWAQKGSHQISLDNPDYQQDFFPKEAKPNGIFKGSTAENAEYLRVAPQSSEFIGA
Sequence of EGFR L858R/T790M/C797S (P00533 25-1210 T790M/C797S/L858R): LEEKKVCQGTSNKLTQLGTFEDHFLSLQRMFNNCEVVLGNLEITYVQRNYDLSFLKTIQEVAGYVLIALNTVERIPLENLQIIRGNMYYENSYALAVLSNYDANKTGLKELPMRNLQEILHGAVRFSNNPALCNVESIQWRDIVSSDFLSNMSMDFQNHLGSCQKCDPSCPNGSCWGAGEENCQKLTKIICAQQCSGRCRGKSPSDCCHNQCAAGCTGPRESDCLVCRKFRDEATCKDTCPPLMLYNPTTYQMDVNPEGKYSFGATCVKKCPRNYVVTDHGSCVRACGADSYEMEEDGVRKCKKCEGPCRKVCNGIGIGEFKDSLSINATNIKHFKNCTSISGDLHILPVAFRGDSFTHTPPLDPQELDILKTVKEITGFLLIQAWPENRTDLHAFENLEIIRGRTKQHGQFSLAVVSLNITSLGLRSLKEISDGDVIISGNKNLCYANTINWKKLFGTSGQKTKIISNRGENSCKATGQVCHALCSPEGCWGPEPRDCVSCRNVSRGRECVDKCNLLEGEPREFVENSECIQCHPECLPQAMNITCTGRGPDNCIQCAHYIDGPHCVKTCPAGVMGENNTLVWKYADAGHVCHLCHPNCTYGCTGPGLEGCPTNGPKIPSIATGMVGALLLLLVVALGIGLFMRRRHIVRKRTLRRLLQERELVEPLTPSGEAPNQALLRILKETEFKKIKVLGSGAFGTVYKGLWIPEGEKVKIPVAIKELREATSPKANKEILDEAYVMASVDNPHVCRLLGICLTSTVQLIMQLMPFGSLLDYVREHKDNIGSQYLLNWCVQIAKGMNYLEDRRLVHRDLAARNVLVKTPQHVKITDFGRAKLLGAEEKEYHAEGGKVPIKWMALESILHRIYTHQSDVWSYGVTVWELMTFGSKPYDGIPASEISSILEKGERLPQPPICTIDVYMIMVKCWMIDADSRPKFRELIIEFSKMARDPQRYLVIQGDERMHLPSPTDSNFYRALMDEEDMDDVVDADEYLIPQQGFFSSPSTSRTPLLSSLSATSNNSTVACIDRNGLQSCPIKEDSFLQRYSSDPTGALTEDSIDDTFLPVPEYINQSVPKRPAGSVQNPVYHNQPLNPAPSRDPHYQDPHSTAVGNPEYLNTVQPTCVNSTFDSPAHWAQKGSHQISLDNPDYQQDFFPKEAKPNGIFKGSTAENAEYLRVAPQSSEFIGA
Sequence of EGFR L858R/T790M (P00533 25-1210 T790M/L858R): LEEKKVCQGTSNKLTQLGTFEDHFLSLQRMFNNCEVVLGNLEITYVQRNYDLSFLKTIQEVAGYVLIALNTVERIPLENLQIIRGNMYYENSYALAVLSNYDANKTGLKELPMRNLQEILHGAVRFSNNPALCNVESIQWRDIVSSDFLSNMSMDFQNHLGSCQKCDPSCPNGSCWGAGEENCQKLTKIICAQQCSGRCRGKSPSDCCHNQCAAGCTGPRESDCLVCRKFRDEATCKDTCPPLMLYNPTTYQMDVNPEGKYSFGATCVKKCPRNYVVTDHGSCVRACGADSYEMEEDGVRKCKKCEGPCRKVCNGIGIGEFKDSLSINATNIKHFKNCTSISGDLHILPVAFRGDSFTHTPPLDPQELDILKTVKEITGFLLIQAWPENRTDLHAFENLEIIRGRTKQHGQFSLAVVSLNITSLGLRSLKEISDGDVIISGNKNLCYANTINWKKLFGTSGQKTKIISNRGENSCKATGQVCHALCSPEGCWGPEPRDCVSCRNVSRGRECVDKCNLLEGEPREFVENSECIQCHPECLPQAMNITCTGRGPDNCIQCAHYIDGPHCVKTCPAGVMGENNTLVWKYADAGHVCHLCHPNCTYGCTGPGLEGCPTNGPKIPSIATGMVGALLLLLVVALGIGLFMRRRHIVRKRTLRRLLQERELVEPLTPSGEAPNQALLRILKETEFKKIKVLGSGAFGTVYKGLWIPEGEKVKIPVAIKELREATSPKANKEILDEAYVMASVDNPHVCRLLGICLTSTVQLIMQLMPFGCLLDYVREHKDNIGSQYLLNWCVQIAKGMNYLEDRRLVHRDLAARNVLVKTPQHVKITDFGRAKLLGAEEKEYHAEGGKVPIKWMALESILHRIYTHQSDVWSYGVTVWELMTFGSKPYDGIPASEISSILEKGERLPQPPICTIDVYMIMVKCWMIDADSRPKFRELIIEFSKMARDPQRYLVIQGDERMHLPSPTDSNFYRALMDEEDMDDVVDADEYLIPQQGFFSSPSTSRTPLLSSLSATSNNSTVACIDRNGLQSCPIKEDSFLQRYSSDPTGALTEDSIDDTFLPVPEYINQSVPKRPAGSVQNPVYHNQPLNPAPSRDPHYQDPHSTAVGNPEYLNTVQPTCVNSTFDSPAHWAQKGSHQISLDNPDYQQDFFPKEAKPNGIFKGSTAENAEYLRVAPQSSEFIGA
Sequence of EGFR-wt (MDA-MB-231 or MCF7 or A549 or OVCAR8) (P00533 25-1210): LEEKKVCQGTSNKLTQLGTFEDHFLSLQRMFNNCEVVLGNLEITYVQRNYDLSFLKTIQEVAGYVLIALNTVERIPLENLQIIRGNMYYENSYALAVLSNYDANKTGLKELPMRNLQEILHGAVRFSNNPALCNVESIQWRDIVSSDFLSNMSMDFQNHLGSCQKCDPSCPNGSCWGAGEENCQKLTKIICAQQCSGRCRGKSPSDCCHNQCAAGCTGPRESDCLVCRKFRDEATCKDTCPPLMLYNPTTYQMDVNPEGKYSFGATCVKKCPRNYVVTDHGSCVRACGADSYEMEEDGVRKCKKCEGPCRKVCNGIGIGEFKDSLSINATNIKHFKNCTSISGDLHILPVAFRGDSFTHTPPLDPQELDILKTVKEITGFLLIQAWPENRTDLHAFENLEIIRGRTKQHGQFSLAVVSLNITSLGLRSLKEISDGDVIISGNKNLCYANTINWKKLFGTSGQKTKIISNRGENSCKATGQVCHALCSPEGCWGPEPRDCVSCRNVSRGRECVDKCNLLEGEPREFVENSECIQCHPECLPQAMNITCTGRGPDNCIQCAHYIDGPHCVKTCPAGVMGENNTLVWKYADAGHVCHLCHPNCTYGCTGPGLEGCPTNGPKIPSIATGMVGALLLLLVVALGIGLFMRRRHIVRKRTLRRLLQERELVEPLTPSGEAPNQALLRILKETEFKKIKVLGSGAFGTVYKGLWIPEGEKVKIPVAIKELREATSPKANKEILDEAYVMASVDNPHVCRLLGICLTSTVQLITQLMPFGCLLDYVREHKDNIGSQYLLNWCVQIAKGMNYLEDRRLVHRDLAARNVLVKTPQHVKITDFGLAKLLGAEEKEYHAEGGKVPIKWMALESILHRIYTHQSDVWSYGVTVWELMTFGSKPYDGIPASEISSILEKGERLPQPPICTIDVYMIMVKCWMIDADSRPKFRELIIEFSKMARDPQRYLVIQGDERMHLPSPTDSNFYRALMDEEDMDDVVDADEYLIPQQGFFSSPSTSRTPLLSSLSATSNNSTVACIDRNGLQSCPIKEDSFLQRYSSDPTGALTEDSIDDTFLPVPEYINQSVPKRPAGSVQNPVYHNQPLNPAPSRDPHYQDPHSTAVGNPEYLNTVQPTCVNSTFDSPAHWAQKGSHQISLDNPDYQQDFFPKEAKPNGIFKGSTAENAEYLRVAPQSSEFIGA

Row | Compound | pIC50 [1] | pIC50 [2] | pIC50 [3] | EGFR protein remaining, EGFR-wt [4] | EGFR protein remaining, EGFR Exon 20 ASV [5] | pIC50 [6] | pIC50 [7] | pIC50 [8] | pIC50 [9] | pIC50 [10] | pIC50 [11] | EGFR protein remaining, EGFR L858R/T790M double mutant [12] | EGFR protein remaining, EGFR L858R/T790M/C797S triple mutant [13]
1 | O=C1CCC(N2C(=O)c3cccc(NCCOCCOCCOCCOCCOCCN4CCN(Cc5ccc(-c6cc7c(NCc8ccccc8Cl)ncnc7[nH]6)cc5)CC4)c3C2=O)C(=O)N1 (stereo not drawn) [Example 8, 4-((17-(4-(4-(4-((2-chlorobenzyl)amino)-7H-pyrrolo[2,3-d]pyrimidin-6-yl)benzyl)piperazin-1-yl)-3,6,9,12,15-pentaoxaheptadecyl)amino)-2-(2,6-dioxopiperidin-3-yl)isoindoline-1,3-dione] | 7.05 | 5.14 | 5.49 | C (>80% EGFR protein remaining after 72 hours of incubation with the test compound at a concentration of 300 nM) | C (>80% EGFR protein remaining after 72 hours of incubation with the test compound at a concentration of 300 nM) | 7.96 | 6.35 | 5.92 | 5.32 | 8.77 | – | – | –
2 | O=C1CCC(N2C(=O)c3cccc(NCCOCCOCCOCCOc4ccc(-c5cc6c(NCc7ccccc7Cl)ncnc6[nH]5)cc4)c3C2=O)C(=O)N1 (stereo not drawn) [Example 10, 4-((2-(2-(2-(2-(4-(4-((2-chlorobenzyl)amino)-7H-pyrrolo[2,3-d]pyrimidin-6-yl)phenoxy)ethoxy)ethoxy)ethoxy)ethyl)amino)-2-(2,6-dioxopiperidin-3-yl)isoindoline-1,3-dione] | 5.77 | 4.80 | 5.26 | C (>80% EGFR protein remaining after 72 hours of incubation with the test compound at a concentration of 300 nM) | C (>80% EGFR protein remaining after 72 hours of incubation with the test compound at a concentration of 300 nM) | 5.46 | 5.49 | 5.43 | 4.55 | 5.43 | – | – | –
3 | Cc1ncsc1-c1ccc(CNC(=O)[C@@H]2C[C@@H](O)CN2C(=O)[C@@H](NC(=O)CCCCCOCCCCOCCCCOc2cc3ncnc(Nc4ccc(F)c(Cl)c4)c3cc2NC(=O)/C=C/CN(C)C)C(C)(C)C)cc1 [Example 66, (2S,4R)-1-((S)-2-(6-(4-(4-((4-((3-chloro-4-fluorophenyl)amino)-6-((E)-4-(dimethylamino)but-2-enamido)quinazolin-7-yl)oxy)butoxy)butoxy)hexanamido)-3,3-dimethylbutanoyl)-4-hydroxy-N-(4-(4-methylthiazol-5-yl)benzyl)pyrrolidine-2-carboxamide] | – | – | – | A (≤50% EGFR protein remaining after 72 hours of incubation with the test compound at a concentration between 300 nM and 10 nM) | B (≤80% and >50% EGFR protein remaining after 72 hours of incubation with the test compound at a concentration between 300 nM and 10 nM) | – | – | – | – | – | 5.18 | A (≤50% EGFR protein remaining after 72 hours of incubation with the test compound at a concentration between 300 nM and 10 nM) | C (>80% EGFR protein remaining after 72 hours of incubation with the test compound at a concentration of 300 nM)
4 | O=C1CCC(N2C(=O)c3cccc(NCCOCCOCCN4CCN(Cc5ccc(-c6cc7c(NCc8ccccc8Cl)ncnc7[nH]6)cc5)CC4)c3C2=O)C(=O)N1 (stereo not drawn) [compound 9] | 7.57 | 5.17 | 5.51 | C (>80% EGFR protein remaining after 72 hours of incubation with the test compound at a concentration of 300 nM) | C (>80% EGFR protein remaining after 72 hours of incubation with the test compound at a concentration of 300 nM) | 8.31 | 6.59 | 6.23 | 5.41 | 8.72 | – | – | –
5 | O=C1CCC(N2C(=O)c3cccc(NCCOCCc4ccc(-c5cc6c(NCc7ccccc7Cl)ncnc6[nH]5)cc4)c3C2=O)C(=O)N1 (stereo not drawn) [compound 11] | 8.08 | < 4.52 | 5.46 | C (>80% EGFR protein remaining after 72 hours of incubation with the test compound at a concentration of 300 nM) | C (>80% EGFR protein remaining after 72 hours of incubation with the test compound at a concentration of 300 nM) | 9.40 | 7.31 | 6.72 | 4.77 | 9.85 | – | – | –
6 | O=C1CCC(N2C(=O)c3cccc(NCCOCCOCCOc4ccc(-c5cc6c(NCc7ccccc7Cl)ncnc6[nH]5)cc4)c3C2=O)C(=O)N1 (stereo not drawn) [compound 12] | 6.30 | 5.04 | 5.00 | C (>80% EGFR protein remaining after 72 hours of incubation with the test compound at a concentration of 300 nM) | C (>80% EGFR protein remaining after 72 hours of incubation with the test compound at a concentration of 300 nM) | 6.82 | 5.24 | < 4.52 | 5.09 | 7.08 | – | – | –
7 | O=C1CCC(N2C(=O)c3cccc(NCCOCCOc4ccc(-c5cc6c(NCc7ccccc7Cl)ncnc6[nH]5)cc4)c3C2=O)C(=O)N1 (stereo not drawn) [compound 13] | 6.12 | < 4.52 | < 4.52 | C (>80% EGFR protein remaining after 72 hours of incubation with the test compound at a concentration of 300 nM) | C (>80% EGFR protein remaining after 72 hours of incubation with the test compound at a concentration of 300 nM) | 6.89 | 5.28 | < 4.52 | < 4.52 | 7.43 | – | – | –
8 | Cc1ncsc1-c1ccc(CNC(=O)[C@@H]2C[C@@H](O)CN2C(=O)[C@@H](NC(=O)COCCOCCOc2ccc(-c3cc4c(NCc5ccccc5Cl)ncnc4[nH]3)cc2)C(C)(C)C)cc1 [compound 15] | 6.16 | < 4.52 | 4.77 | C (>80% EGFR protein remaining after 72 hours of incubation with the test compound at a concentration of 300 nM) | C (>80% EGFR protein remaining after 72 hours of incubation with the test compound at a concentration of 300 nM) | 6.70 | 5.33 | 4.72 | < 4.52 | 6.85 | – | – | –
